The results in this text go back to patent US6869791B2, “Method for sterilizing transformed cells” (Sumitomo Chemical Company, Ltd., priority 2000, dated 2005).

Like-named read-outs stand apart in the source and are kept apart here.

Assay [1] relates to esterase in culture broth of E. coli JM105/pYHNK 2 strain.
Procedure: 0.02 g of N-benzylazetidin-2-carboxyilic acid ethyl ester, 1.0 ml t-butyl methyl ether and 3.5 ml of 100 mM monopotassium phosphate-dipotassium phosphate buffer (pH 7.0) were added in a 10 ml threaded test tube and kept at 35′ for 15 minutes. 200 μl of the esterase solution was put in the test tube to measure its esterase activity and shaken reciprocally (120 str/min) at 35° C. for 16 minutes. Then 400% 1 of the mixed solution was centrifuged (12000 rpm, 5 minutes) after 1 ml t-butyl methyl ether was added and stirred. 200 μl of the obtained aqueous phase was analyzed quantitatively (by absolute calibration curve method) with respect to N-benzylazetidin-2-carboxylic acid by high performance liquid chromatography after dissolved in 20 mM phosphate acid monopotassium water/acetonitrile=90/10 and filtered by a 0.2 μl filter.
The subject of assay [2] is E. coli JM105/pYHNK 2 strain. It counts as cell-based, Escherichia coli.
For assay [3], the system named is E. coli JM105/pEAR5 strain. The conditions noted are these: stirred 24 hours at 30° C. How it is done: (§1) Number of viable cells was determined by the following method.
(§2) About 1 ml of a sample solution to be measured with the number of viable cells was diluted with physiological saline cooled to 4° C. 100 μl of the diluted solution was applied onto a LB-medium plate (L-Broth Ager (manufactured by BIO 101 Company, Ltd) containing ampicilline at a concentration of 100 μ/ml and kept at 37° C. for 1 to 2 days. Thereafter, number of the viable cells was calculated from the number of colonies grown thereon.

For assay [4], the system named is E. coli JM 105/pCC160S189Y363term strain. The conditions noted are these: stirred 24 hours at 30° C. How it is done: as §1, §2
For assay [5], the system named is esterase derived from Arthrobacter SC-6-98-28 in culture broth of E. coli JM105/pEAR5 strain. The conditions noted are these: stirred 24 hours at 30° C. How it is done: Measurement of the Esterase Activity in Example 13 and 14:
To 5 ml of a diluted solution of the culture broth or sterilized solution obtained by the pre sent method was added 1 g of 2,2-dichloro-3-(1-propenyl)cyclopropane-1-carboxylic acid methyl ester (1R/1S=50/50, trans/cis98/2) and the resulting mixture was stirred at 45° C. for 30 minutes while maintaining the pH at 10.0. A portion of the reaction solution was sampled, acidified with hydrochloric acid, and extracted with ethyl acetate. The extract solution was analyzed by gas-chromatography to measure the hydrolysis rate (Internal standard: methyl cinnamate, column: HR20M 0.53 φ, 30 m, 1 μ, ULBON). The esterase activity was calculated from the hydrolysis rate.

For assay [6], the system named is esterase derived from Chromobacterium SC-YM-1 (160S, 189Y mutant) in culture broth of E. coli JM 105/pCC160S189Y363term strain. Conditions: stirred 24 hours at 30° C. How it is done:
Measurement of the enzyme activity was performed by using p-nitrophenyl acetate (pNPA) as a substrate. A sample enzyme solution was added to a 3.0 ml of 100 mM phosphate buffer solution (pH 7.5) containing the substrate at a concentration of 5 mM and the resulting mixture is maintained at 37° C. An amount of liberated p-nitrophenol was measured by the increase of absorbance at 405 nm.

Setting [7] is: Example 5: 40 ml culture broth + 10 ml methanol, stirred 24 hours at 30° C.
The mark [8] stands for this setting: Example 6: 40 ml culture broth + 10 ml methanol, stirred 6 hours at 30° C.
The mark [9] stands for this setting: Example 7: 40 ml culture broth + 10 ml methanol, stirred 48 hours at 30° C.
Setting [10] is: Example 8: 40 ml culture broth + 10 ml methanol, stirred 5 hours at 25° C.
Where [11] appears, read: Example 9: 40 ml culture broth + 10 ml acetone, stirred 24 hours at 30° C.
Setting [12] is: Example 10: 40 ml culture broth + 10 ml acetone, stirred 6 hours at 30° C.
Setting [13] is: Example 11: 40 ml culture broth + 10 ml acetone, stirred 48 hours at 30° C.
The mark [14] stands for this setting: Example 12: 40 ml culture broth + 6.5 ml acetone, stirred 24 hours at 30° C.
Where [15] appears, read: Example 1: 40 ml culture broth + 10 ml ethanol, stirred 24 hours at 30° C.
[16] abbreviates: Example 2: 40 ml culture broth + 10 ml ethanol, stirred 6 hours at 30° C.
The mark [17] stands for this setting: Example 3: 40 ml culture broth + 10 ml ethanol, stirred 48 hours at 30° C.
Setting [18] is: Example 4: 42.5 ml culture broth + 7.5 ml ethanol, stirred 24 hours at 30° C.
[19] abbreviates: Example 13: 45 g culture broth + 5 g ethanol.
[20] abbreviates: Example 14: 37.5 g culture broth + 12.5 g ethanol.
The mark [21] stands for this setting: Example 15: 45 g culture broth + 5 g ethanol.
Setting [22] is: Example 16: 37.5 g culture broth + 12.5 g ethanol.

On to `CO` [methanol], for which the “esterase activity of the mixed solution, relative to culture broth (1)” value is recorded as no less than 95% in assay [1] (setting [7]), no less than 95% in assay [1] (setting [8]) and no less than 92% in assay [1] (setting [10]). In addition, the “esterase activity of the mixed solution, relative to broth solution (1)” value in assay [1] (setting [9]) was no less than 95%. Further, the viable cell number in assay [2] (setting [7]), in assay [2] (setting [8]), in assay [2] (setting [9]) and in assay [2] (setting [10]) was 0 cfu/ml each time.

As to `CC(C)=O` [acetone], the “esterase activity of the mixed solution, relative to culture broth (1)” value in assay [1] (setting [11]), in assay [1] (setting [12]), in assay [1] (setting [13]) and in assay [1] (setting [14]) was no less than 95% throughout. Also, the viable cell number in assay [2] (setting [11]), in assay [2] (setting [12]), in assay [2] (setting [13]) and in assay [2] (setting [14]) was 0 cfu/ml each time.

Turning to `CCO` [ethanol], the “esterase activity of the mixed solution, relative to culture broth (1)” value in assay [1] (setting [15]), in assay [1] (setting [16]), in assay [1] (setting [17]) and in assay [1] (setting [18]) was no less than 95% in each case. In addition, the viable cell number in assay [3] (setting [19]), in assay [3] (setting [20]), in assay [4] (setting [21]), in assay [4] (setting [22]), in assay [2] (setting [15]) and in assay [2] (setting [16]) was 0 cfu/ml throughout. Moreover, the viable cell number in assay [2] (setting [17]) and in assay [2] (setting [18]) was 0 cfu/ml each time. In addition, the “esterase activity of the solution, relative to culture broth (2)” value in assay [5] (setting [19]) and in assay [5] (setting [20]) was no less than 95% throughout. For the same compound, the “esterase activity of the solution, relative to culture broth (3)” value in assay [6] (setting [21]) and in assay [6] (setting [22]) was no less than 95% each time.
